# Assays:
# [1] = tested on: xenotransplantation 4T1 tumor model; experiment: In vivo experiment of breast cancer cells, lenalidomide and lapatinib nano drug carrier systems; parameters: species or system BALB/c mice; details: 4 mg/kg via caudal veins, once every two days, 5 times; normal saline as control
# Method: The anti-tumor effect of nanoparticles in vivo is based on investigation of a xenotransplantation 4T1 tumor model established in the BALB/c mice. Each of groups represents normal saline (Group I), free lenalidomide (Group II), lenalidomide-Py-PEG-HP (Group III), […] lenalidomide-Mal-PEG-HP (Group IV), free lapatinib (Group V), lapatinib-Py-PEG-HP (Group VI) and lapatinib-Mal-PEG-HP (Group VII) respectively, wherein they are administrated via caudal veins at a dosage of 4 mg/kg, once every two days, with a total of 5 times. As shown in the diagram below, the tumor development is detected on the second day after administration.
# [2] = tested on: acute promyelocytic leukemia (HL-60) cells; experiment: Uptake experiment of leukemia cells; assay type: cell-based; details: 1×10^5/ml
# Method: An uptake experiment of free daunorubicin, daunorubicin-Py-PEG-HP and daunorubicin-Mal-PEG-HP with acute promyelocytic leukemia (HL-60) cells: the concentration of HL-60 cells is adjusted to 1×10^5/ml, and the cells are added into a 24 -well plate with 1 ml per well; a certain concentration of pure DNR solution and a certain concentration of DNR-NP suspension are added into a culture plate, and cultured for a certain time, then the cells are taken out at five time points (30 min, 60 min, 90 min, 120 min and 180 min) respectively; centrifugation is performed at 4° C. under 1000 rpm for 5 min, and the cells are collected, and then washed twice using a RPM11640 medium added with serum; the cells are lysed with 1.5 ml of 50 μg/ml protease K and a 1% SDS solution, with continuous shaking performed at 37° C. for 12 hours, and a cell extract is collected; and the drug content in the cells is calculated by a fluorescence intensity standard curve.
# [3] = tested on: 4T1 breast cancer xenograft tumors; experiment: In vivo experiment of breast cancer cells, daunorubicin nano drug carrier systems; details: 3 mg/kg via caudal veins, once every three days, 4 times; 4T1 in BALB/c mice
# Method: Anti-tumor effects of nanoparticles in vivo are studied in BALB/c mice with 4T1 breast cancer xenograft tumors. Free daunorubicin (Group I), daunorubicin-Py-PEG-HP (Group II) and daunorubicin-Mal-PEG-HP (Group III) are administered via caudal veins at a dose of 3 mg/kg, for once every three days and in total 4 times, with the free daunorubicin group (Group I) as the control.
# [4] = tested on: 5T33 multiple myeloma cells; experiment: In vivo experiment of multiple myeloma; parameters: species or system mice
# Method: Thirty 6-week-old mice are divided into three groups, which are administrated with free lenalidomide (Group I), lenalidomide-Py-PEG-HP (Group II) and lenalidomide-Mal-PEG-HP (Group III) respectively. Male and female animals in each group are halved, and there is no statistically significant difference in body weight among animals in each group. The dosage of free lenalidomide group is 0.1 ml/kg body weight/day, and the dosage of lenalidomide-Py-PEG-HP group and lenalidomide-Mal-PEG-HP group is 20 mg/kg (body weight/day).
# One week after injection of 1,000,000 5T33 multiple myeloma cells into the tail veins of mice, drugs are administered subcutaneously according to the above scheme, for three times a week. During the administration period, the animals are weighed every day, and the dosage on that day is determined according to the weight, and the animals are continuously administered until death of the mice. The venous blood of mice is collected and stored every week, and the time of death of mice is recorded.
# According to the statistical test, there is significant difference in the survival time of mice when free lenalidomide group is compared with heparin nano drug carrier system (P<0.05), as shown in Table 1. There is significant difference in the tumor load in serum of mice when the free lenalidomide group is compared with heparin nano drug carrier system (P<0.05), as shown in Table 2.
Structure (SMILES),anti-tumor effect (tumor development) [1],uptake efficiency [2] [%],anti-tumor effect (tumor volume) [3],"Average survival days of mice after drug injection ([4]; 5T33 mice, subcutaneous, three times a week, free lenalidomide 0.1 ml/kg body weight/day, conjugates 20 mg/kg) [days]","Average tumor load in serum of mice after drug injection ([4]; 1 day, mouse LGg2b concentration) [µg/mL]",Average tumor load in serum of mice after drug injection ([4]; 8 days) [µg/mL],Average tumor load in serum of mice after drug injection ([4]; 15 days) [µg/mL],Average tumor load in serum of mice after drug injection ([4]; 22 days) [µg/mL],Average tumor load in serum of mice after drug injection ([4]; 29 days) [µg/mL]
"CS(=O)(=O)CCNCc1ccc(-c2ccc3ncnc(Nc4ccc(OCc5cccc(F)c5)c(Cl)c4)c3c2)o1 [free lapatinib, lapatinib]",have the anti-tumor activity,,,,,,,,
"COc1cccc2c1C(=O)c1c(O)c3c(c(O)c1C2=O)C[C@@](O)(C(C)=O)C[C@@H]3O[C@H]1C[C@H](N)[C@H](O)[C@H](C)O1 [free daunorubicin, daunorubicin]",,16,insignificant anti-tumor activity,,,,,,
"Nc1cccc2c1CN(C1CCC(=O)NC1=O)C2=O (stereo not shown) [free lenalidomide, lenalidomide]",have the anti-tumor activity,,,35,125.3,206.5,335.2,611.4,864.1

# — patent publication US20220323591A1, “HEPARIN NANO DRUG CARRIER SYSTEM LOADED WITH AMINO ANTI-TUMOR DRUG AND PREPARATION METHOD THEREOF” (NANJING KING-FRIEND BIOCHEMICAL PHARMACEUTICAL CO., LTD., priority 2020, published 2022)
